Compound in this experiment: CC(=O)N1CCc2c(c(N3CCCc4cc(-c5cnn(C)c5)c(C(F)F)cc43)nn2C2CCC(CN3CCN(c4ccc5c(c4)C(=O)N(C4CCC(=O)NC4=O)C5=O)CC3)CC2)C1 [CBPD-409]
The experiment is described as follows: AUC of viability dose-response curve (relative to vehicle, 8 doses up to 10 µM) (fraction); higher = less sensitive (more viable); extreme values may be limits of the assay. The protocol:
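PRISM multiplexed pooled barcoded cell line viability screen at the Broad Institute, 887 cancer cell lines treated with CBPD-409 (p300/CBP PROTAC degrader) at 8 concentrations in threefold dilution, top dose 10 µM. The read-out is the area under the dose-response curve of relative viability versus vehicle (n=3). AUC < 0.3 is called strongly sensitive and AUC > 0.8 resistant.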

± gives the standard deviation of the averaged measurements.

“KARPAS1718_HAEMATOPOIETIC_AND_LYMPHOID_TISSUE”: the “AUC of viability dose-response curve” value worked out at 0.585.
For the test system KATOIII_STOMACH, the “AUC of viability dose-response curve” value came out at 0.581.
With “KCL22_HAEMATOPOIETIC_AND_LYMPHOID_TISSUE”, the “AUC of viability dose-response curve” value is 0.552.
KD_SOFT_TISSUE: the “AUC of viability dose-response curve” value was 0.299.
To KE37_HAEMATOPOIETIC_AND_LYMPHOID_TISSUE belongs 0.925; to KE39_STOMACH, 1; to KE97_STOMACH, 1.
In the case of KELLY_AUTONOMIC_GANGLIA, the “AUC of viability dose-response curve” value was 0.234 ± 0.054.
The value for “KHM1B_HAEMATOPOIETIC_AND_LYMPHOID_TISSUE” was 0.665; that for KKU055_BILIARY_TRACT was 0.915; that for KKU100_BILIARY_TRACT was 0.994.
For the test system KKU213_BILIARY_TRACT, the “AUC of viability dose-response curve” value amounted to 0.767.
To KLE_ENDOMETRIUM belongs 0.91; to KMBC2_URINARY_TRACT, 0.841; to KMCH1_BILIARY_TRACT, 0.96.
To KMH2_HAEMATOPOIETIC_AND_LYMPHOID_TISSUE belongs 1; to KMRC1_KIDNEY, 1; to KMRC3_KIDNEY, 0.906.
Consider KMRC20_KIDNEY, for which the “AUC of viability dose-response curve” value was found to be 0.738.
With “KMS11_HAEMATOPOIETIC_AND_LYMPHOID_TISSUE”, the “AUC of viability dose-response curve” value is 0.497.
To “KMS12BM_HAEMATOPOIETIC_AND_LYMPHOID_TISSUE” belongs 0.28; to “KMS18_HAEMATOPOIETIC_AND_LYMPHOID_TISSUE”, 0.466.
“KMS27_HAEMATOPOIETIC_AND_LYMPHOID_TISSUE”: the “AUC of viability dose-response curve” value amounted to 0.801.
To “KMS28BM_HAEMATOPOIETIC_AND_LYMPHOID_TISSUE” belongs 0.583.
To KNS42_CENTRAL_NERVOUS_SYSTEM belongs 0.413.
The value for KNS60_CENTRAL_NERVOUS_SYSTEM was 0.779.
Take KNS62_LUNG: the “AUC of viability dose-response curve” value is 0.953.
To KNS81_CENTRAL_NERVOUS_SYSTEM belongs 1.
To KON_UPPER_AERODIGESTIVE_TRACT belongs 0.7; to “KOPN8_HAEMATOPOIETIC_AND_LYMPHOID_TISSUE”, 0.704; to KOSC2CL343_UPPER_AERODIGESTIVE_TRACT, 0.875.
For the test system KP2_PANCREAS, the “AUC of viability dose-response curve” value is 0.512.
Turning to KP3_PANCREAS, the “AUC of viability dose-response curve” value was determined as 1.
The value for KP4_PANCREAS was 0.625; that for KS1_CENTRAL_NERVOUS_SYSTEM was 0.307; that for KU1919_URINARY_TRACT was 0.267.
The value for KURAMOCHI_OVARY was 0.967; that for KYM1_SOFT_TISSUE was 0.446.
Consider KYO1_HAEMATOPOIETIC_AND_LYMPHOID_TISSUE, for which the “AUC of viability dose-response curve” value came to 0.628.
To KYSE30_OESOPHAGUS belongs 0.619; to KYSE70_OESOPHAGUS, 1.
With KYSE140_OESOPHAGUS, the “AUC of viability dose-response curve” value is 1.
For the test system KYSE150_OESOPHAGUS, the “AUC of viability dose-response curve” value came to 0.834.
On to KYSE180_OESOPHAGUS, for which the “AUC of viability dose-response curve” value was 0.929.
The value for KYSE270_OESOPHAGUS was 0.722; that for KYSE410_OESOPHAGUS was 0.901.
In the case of KYSE450_OESOPHAGUS, the “AUC of viability dose-response curve” value stood at 0.761.
On to KYSE510_OESOPHAGUS, for which the “AUC of viability dose-response curve” value stood at 0.928.
To KYSE520_OESOPHAGUS belongs 0.797; to L33_PANCREAS, 0.692.
For L82_HAEMATOPOIETIC_AND_LYMPHOID_TISSUE, the “AUC of viability dose-response curve” value amounted to 0.44.
For the test system “LAMA84_HAEMATOPOIETIC_AND_LYMPHOID_TISSUE”, the “AUC of viability dose-response curve” value amounted to 0.832.
As to LC1SQSF_LUNG, the “AUC of viability dose-response curve” value worked out at 0.991.
Take LCLC103H_LUNG: the “AUC of viability dose-response curve” value came out at 1.
To LI7_LIVER belongs 1; to LK2_LUNG, 0.178; to LMSU_STOMACH, 0.672.
To LN18_CENTRAL_NERVOUS_SYSTEM belongs 0.607; to LN229_CENTRAL_NERVOUS_SYSTEM, 1; to LN382_CENTRAL_NERVOUS_SYSTEM, 1.
On to LN464_CENTRAL_NERVOUS_SYSTEM, for which the “AUC of viability dose-response curve” value was 0.404.
Turning to LNCAPCLONEFGC_PROSTATE, the “AUC of viability dose-response curve” value stood at 0.249.
To LNZ308_CENTRAL_NERVOUS_SYSTEM belongs 0.998; to LOUNH91_LUNG, 0.731.
To LOVO_LARGE_INTESTINE belongs 0.131.
To LOXIMVI_SKIN belongs 0.845; to LPS141_SOFT_TISSUE, 1; to LS180_LARGE_INTESTINE, 0.961.
Regarding LS411N_LARGE_INTESTINE, the “AUC of viability dose-response curve” value came out at 0.988.
LS513_LARGE_INTESTINE: the “AUC of viability dose-response curve” value worked out at 0.568.
For LS1034_LARGE_INTESTINE, the “AUC of viability dose-response curve” value was determined as 0.295.
Take LS_AUTONOMIC_GANGLIA: the “AUC of viability dose-response curve” value is 0.248.
LU99_LUNG: the “AUC of viability dose-response curve” value was 0.831.
In the case of LUDLU1_LUNG, the “AUC of viability dose-response curve” value was determined as 1.
Take LXF289_LUNG: the “AUC of viability dose-response curve” value turned out to be 0.522.
As to M059K_CENTRAL_NERVOUS_SYSTEM, the “AUC of viability dose-response curve” value stood at 0.673.
To MALME3M_SKIN belongs 0.272.
As to MB1_THYROID, the “AUC of viability dose-response curve” value turned out to be 0.776.
The value for “MC116_HAEMATOPOIETIC_AND_LYMPHOID_TISSUE” was 0.804.
For the test system MCAS_OVARY, the “AUC of viability dose-response curve” value is 1.
As to MCC13_SKIN, the “AUC of viability dose-response curve” value was 1.
With MCC26_SKIN, the “AUC of viability dose-response curve” value is 0.98.
To MCC142_SKIN belongs 0.969; to MCF7_BREAST, 0.701.
MDAMB175VII_BREAST: the “AUC of viability dose-response curve” value is 0.999.
The value for MDAMB231_BREAST was 0.701; that for MDAMB361_BREAST was 0.368; that for MDAMB435S_SKIN was 1.
With MDAMB436_BREAST, the “AUC of viability dose-response curve” value is 0.505.
On to MDAMB453_BREAST, for which the “AUC of viability dose-response curve” value came out at 0.401.
In the case of MDAMB468_BREAST, the “AUC of viability dose-response curve” value stood at 0.97.
On to MDAPCA2B_PROSTATE, for which the “AUC of viability dose-response curve” value came out at 0.266.
“MEG01_HAEMATOPOIETIC_AND_LYMPHOID_TISSUE”: the “AUC of viability dose-response curve” value came to 0.74.
MEL285_UVEA: the “AUC of viability dose-response curve” value is 0.639.
Take MEL290_UVEA: the “AUC of viability dose-response curve” value amounted to 0.688.
As for MELHO_SKIN, the “AUC of viability dose-response curve” value turned out to be 0.263.
As to MELJUSO_SKIN, the “AUC of viability dose-response curve” value amounted to 1.
Regarding MESSA_SOFT_TISSUE, the “AUC of viability dose-response curve” value amounted to 0.126.
The value for MEWO_SKIN was 0.268; that for MFE280_ENDOMETRIUM was 0.581; that for MFE296_ENDOMETRIUM was 0.514.
The value for MFE319_ENDOMETRIUM was 0.353.
Regarding MG63_BONE, the “AUC of viability dose-response curve” value worked out at 1.
The value for MHHES1_BONE was 0.842 ± 0.2.
In the case of MHHNB11_AUTONOMIC_GANGLIA, the “AUC of viability dose-response curve” value is 0.488.
Regarding MIAPACA2_PANCREAS, the “AUC of viability dose-response curve” value came to 1.
The value for MKN1_STOMACH was 1.
As for MKN7_STOMACH, the “AUC of viability dose-response curve” value was 0.517.
On to MKN45_STOMACH, for which the “AUC of viability dose-response curve” value came to 0.238.
The value for MKN74_STOMACH was 0.493; that for MM1S_HAEMATOPOIETIC_AND_LYMPHOID_TISSUE was 0.328; that for MM127_SKIN was 1.
As to MMNK1_BILIARY_TRACT, the “AUC of viability dose-response curve” value is 0.479.
“MOLM13_HAEMATOPOIETIC_AND_LYMPHOID_TISSUE”: the “AUC of viability dose-response curve” value came out at 0.356.
To “MOLM14_HAEMATOPOIETIC_AND_LYMPHOID_TISSUE” belongs 0.212; to “MOLP2_HAEMATOPOIETIC_AND_LYMPHOID_TISSUE”, 0.555.

The values are drawn from the supplement of paper PMC12513837.
